Reference: the NIST ThermoML archive (doi:10.1021/je0601255)

Experiment: xn = mol fraction of the nth substance listed
Conditions: 101 kPa, Liquid; for viscosity: Capillary tube (Ostwald / Ubbelohde) method; for mass density: Pycnometric method

C=C(C)C(=O)O [2-methyl-2-propenoic acid] + CCCCO
Conditions | mass density, 288.15 K [kg/m3] | mass density, 298.15 K [kg/m3] | mass density, 308.15 K [kg/m3] | mass density, 318.15 K [kg/m3] | viscosity, 288.15 K [mPa·s] | viscosity, 298.15 K [mPa·s] | viscosity, 308.15 K [mPa·s] | viscosity, 318.15 K [mPa·s]
x2 = 0 | 1018.3 | 1009.5 | 999.4 | 989.2 | 1.447 | 1.267 | 1.078 | 0.945
x2 = 0.1 | 996.3 | 987.7 | 978 | 968.1 | 1.632 | 1.4 | 1.174 | 1.015
x2 = 0.2 | 974.7 | 966.5 | 957.4 | 948.1 | 1.818 | 1.534 | 1.275 | 1.09
x2 = 0.3 | 954.3 | 946.3 | 937.7 | 928.7 | 2.009 | 1.672 | 1.377 | 1.16
x2 = 0.4 | 934.2 | 926.6 | 918.1 | 909.3 | 2.2 | 1.81 | 1.476 | 1.227
x2 = 0.5 | 914.2 | 907 | 898.6 | 890.1 | 2.392 | 1.947 | 1.574 | 1.294
x2 = 0.6 | 894.2 | 887.4 | 879 | 870.6 | 2.576 | 2.079 | 1.667 | 1.355
x2 = 0.7 | 874.1 | 867.3 | 859.1 | 851 | 2.756 | 2.204 | 1.756 | 1.413
x2 = 0.8 | 853.7 | 847 | 839.2 | 831.4 | 2.935 | 2.329 | 1.842 | 1.466
x2 = 0.9 | 832.9 | 826.7 | 819.1 | 811.5 | 3.111 | 2.453 | 1.925 | 1.515

C=C(C)C(=O)OCc1ccccc1 [benzyl methacrylate] + CCCCO
Conditions | mass density, 288.15 K [kg/m3] | mass density, 298.15 K [kg/m3] | mass density, 308.15 K [kg/m3] | mass density, 318.15 K [kg/m3] | viscosity, 288.15 K [mPa·s] | viscosity, 298.15 K [mPa·s] | viscosity, 308.15 K [mPa·s] | viscosity, 318.15 K [mPa·s]
x2 = 0 | 1041.2 | 1034.7 | 1025.8 | 1017 | 2.871 | 2.302 | 1.885 | 1.58
x2 = 0.1 | 1027.8 | 1021.3 | 1012.5 | 1003.9 | 2.655 | 2.123 | 1.746 | 1.455
x2 = 0.2 | 1013.3 | 1006.8 | 998.1 | 989.5 | 2.519 | 2.021 | 1.656 | 1.388
x2 = 0.3 | 997.5 | 990.9 | 982.3 | 973.8 | 2.462 | 1.958 | 1.605 | 1.342
x2 = 0.4 | 979.9 | 973.3 | 964.8 | 956.4 | 2.41 | 1.919 | 1.568 | 1.308
x2 = 0.5 | 960.3 | 953.7 | 945.3 | 937 | 2.384 | 1.868 | 1.525 | 1.272
x2 = 0.6 | 938.3 | 931.6 | 923.4 | 915.2 | 2.375 | 1.834 | 1.505 | 1.247
x2 = 0.7 | 913.2 | 906.6 | 898.5 | 890.4 | 2.427 | 1.863 | 1.508 | 1.244
x2 = 0.8 | 884.5 | 877.9 | 869.9 | 862 | 2.51 | 1.982 | 1.59 | 1.302
x2 = 0.9 | 851.3 | 844.6 | 836.8 | 829.1 | 2.704 | 2.168 | 1.727 | 1.394

C=C(C)C(=O)OCCO [2-hydroxyethyl 2-methyl-2-propenoate] + CCCCO
Conditions | mass density, 288.15 K [kg/m3] | mass density, 298.15 K [kg/m3] | mass density, 308.15 K [kg/m3] | mass density, 318.15 K [kg/m3] | viscosity, 288.15 K [mPa·s] | viscosity, 298.15 K [mPa·s] | viscosity, 308.15 K [mPa·s] | viscosity, 318.15 K [mPa·s]
x2 = 0 | 1074.7 | 1067.1 | 1057.7 | 1048.6 | 8.234 | 5.784 | 4.194 | 3.181
x2 = 0.1 | 1054.5 | 1047.1 | 1037.9 | 1029.1 | 7.303 | 5.188 | 3.822 | 2.963
x2 = 0.2 | 1033.3 | 1025.9 | 1016.9 | 1008.3 | 6.437 | 4.643 | 3.432 | 2.692
x2 = 0.3 | 1010.9 | 1003.6 | 994.8 | 986.3 | 5.681 | 4.154 | 3.109 | 2.43
x2 = 0.4 | 987.3 | 980 | 971.3 | 963 | 5.118 | 3.738 | 2.829 | 2.222
x2 = 0.5 | 962.2 | 955.1 | 946.6 | 938.3 | 4.633 | 3.398 | 2.598 | 2.051
x2 = 0.6 | 935.7 | 928.6 | 920.3 | 912.1 | 4.195 | 3.092 | 2.399 | 1.9
x2 = 0.7 | 907.6 | 900.6 | 892.4 | 884.4 | 3.833 | 2.834 | 2.212 | 1.759
x2 = 0.8 | 877.7 | 870.8 | 862.9 | 855 | 3.534 | 2.666 | 2.089 | 1.657
x2 = 0.9 | 846 | 839.2 | 831.5 | 823.8 | 3.321 | 2.583 | 2.018 | 1.609
